# Test results taken from US4029671A, “3-[(5-nitro-2-imidazolyl)pyrazol-5-yl]oxamic acid derivatives” (priority 1976, dated 1977).
# Where a name gives a salt, the structure may show the parent alone.
# Assays:
# [1] = system: Bacteroides fragilis sp. fragilis 106; assay: Agar dilution susceptibility of anaerobic bacteria (Chart 1); assay type: cell-based; settings: agar dilution, 37° C., Bacteroides fragilis sp. fragilis 106; for MIC: Bacteroides fragilis, 24 h, read-out: 24 Hr. MIC
# [2] = system: Bacteroides fragilis sp. fragilis 107; assay: as above; assay type: cell-based; settings: Bacteroides fragilis, 24 h, agar dilution, 37° C.; Bacteroides fragilis sp. fragilis 107; read-out: 24 Hr. MIC
# [3] = system: Bacteroides fragilis sp. fragilis 111; assay: as above; assay type: cell-based; settings: agar dilution, 37° C., Bacteroides fragilis sp. fragilis 111; for MIC: Bacteroides fragilis, 24 h, read-out: 24 Hr. MIC
# [4] = system: Eubacterium aerofaciens 1235; assay: as above; assay type: cell-based; settings: agar dilution, 37° C., Eubacterium aerofaciens 1235; for MIC: Collinsella aerofaciens, 1235, 24 h, read-out: 24 Hr. MIC
# [5] = system: Bacteroides fragilis sp. thetaiotaomicron 1900A; assay: as above; assay type: cell-based; settings: agar dilution, 37° C., Bacteroides fragilis sp. thetaiotaomicron 1900A; for MIC: Bacteroides fragilis, 24 h, read-out: 24 Hr. MIC
# [6] = system: Bacteroides fragilis sp. fragilis 1874; assay: as above; assay type: cell-based; settings: agar dilution, 37° C., Bacteroides fragilis sp. fragilis 1874; for MIC: Bacteroides fragilis, 24 h, read-out: 24 Hr. MIC
# [7] = system: Bacteroides fragilis sp. fragilis 112; assay: as above; assay type: cell-based; settings: agar dilution, 37° C., Bacteroides fragilis sp. fragilis 112; for MIC: Bacteroides fragilis, 24 h, read-out: 24 Hr. MIC
# [8] = system: Propionibacterium acnes 79; assay: as above; assay type: cell-based; settings: agar dilution, 37° C., Propionibacterium acnes 79; for MIC: Cutibacterium acnes, 79, 24 h, read-out: 24 Hr. MIC
# [9] = system: Bacteroides fragilis sp. vulgatis 1563; assay: as above; assay type: cell-based; settings: agar dilution, 37° C., Bacteroides fragilis sp. vulgatis 1563; for MIC: Bacteroides fragilis, 24 h, read-out: 24 Hr. MIC
# Peptococcus prevoti 1281 = assay: as above; assay type: cell-based; settings: for MIC: 24 h, read-out: 24 Hr. MIC, agar dilution, 37° C.; for 24 Hr. MIC: agar dilution, 37° C.
# [10] = system: Bacteroides fragilis sp. fragilis 110; assay: as above; assay type: cell-based; settings: agar dilution, 37° C., Bacteroides fragilis sp. fragilis 110; for MIC: Bacteroides fragilis, 24 h, read-out: 24 Hr. MIC
# [11] = system: Peptostreptococcus intermedius 1264; assay: as above; assay type: cell-based; settings: agar dilution, 37° C., Peptostreptococcus intermedius 1264; for MIC: Peptostreptococcus, 1264, 24 h, read-out: 24 Hr. MIC
# [12] = system: Bacteroides corrodens 1874; assay: as above; assay type: cell-based; settings: agar dilution, 37° C., Bacteroides corrodens 1874; for MIC: Eikenella corrodens, 1874, 24 h, read-out: 24 Hr. MIC
# [13] = system: Bacteroides fragilis sp. fragilis 113; assay: as above; assay type: cell-based; settings: agar dilution, 37° C., Bacteroides fragilis sp. fragilis 113; for MIC: Bacteroides fragilis, 24 h, read-out: 24 Hr. MIC
# [14] = system: Actinomyces israelii W855; assay: as above; assay type: cell-based; settings: 24 h, agar dilution, 37° C., read-out: 24 Hr. MIC
# [15] = system: Fusobacterium necrophorum 6054A; assay: as above; assay type: cell-based; settings: agar dilution, 37° C., Fusobacterium necrophorum 6054A; for MIC: Fusobacterium necrophorum, 6054A, 24 h, read-out: 24 Hr. MIC
# [16] = system: Bacteroides fragilis sp. fragilis 108; assay: as above; assay type: cell-based; settings: agar dilution, 37° C., Bacteroides fragilis sp. fragilis 108; for MIC: Bacteroides fragilis, 24 h, read-out: 24 Hr. MIC
# [17] = system: Bacteroides fragilis sp. fragilis 62; assay: as above; assay type: cell-based; settings: agar dilution, 37° C., Bacteroides fragilis sp. fragilis 62; for MIC: Bacteroides fragilis, 24 h, read-out: 24 Hr. MIC
# [18] = system: Clostridium perfringens 81; assay: microbe, parasite or virus in culture; assay type: cell-based; settings: for MIC: Clostridium perfringens, 81, 24 h, read-out: 24 Hr. MIC, agar dilution, 37° C.; for 24 Hr. MIC: agar dilution, 37° C.
# [19] = system: Bacteroides melaninogenicus 2736; assay: Agar dilution susceptibility of anaerobic bacteria (Chart 1); assay type: cell-based; settings: agar dilution, 37° C., Bacteroides melaninogenicus 2736; for MIC: 2736, 24 h, read-out: 24 Hr. MIC
# [20] = system: Bacteroides fragilis sp. fragilis 104; assay: as above; assay type: cell-based; settings: 24 h; agar dilution, 37° C.; Bacteroides fragilis sp. fragilis 104; read-out: 24 Hr. MIC
# Salmonella typhimurium = assay: Control of infections caused by Salmonella typhimurium in chickens (Chart 2); assay type: in vivo; settings: 60 mg./kg. subcutaneous, day-old chicks, 5 per group, 6 days observation
# Experimental: The efficacy of the novel compounds in the control of infections caused by Salmonella typhimurium in chickens was evaluated in the following manner. The test was carried out using day-old chicks weighing approximately 35 g. each. The chicks were divided into groups of 5 chicks per each dosage level. A portion of the chicks received the test compound which was suspended in 0.2 ml. of polyethylene glycol 200 and administered subcutaneously in the neck. […] All the chicks were challenged with a 1:200 dilution of a culture of the organism, 0.1 ml. of the dilution being injected into each chick in the leg intramuscularly. […] The test compounds are identified in the same manner as set forth in experiment 1. In the chart, column 1 lists the compounds tested; column 2, the dosage of test compound in mg./kg.; and column 3, the survival ratio.
SMILES,MIC [1] [µg/mL],MIC [2] [µg/mL],MIC [3] [µg/mL],MIC [4] [µg/mL],MIC [5] [µg/mL],MIC [6] [µg/mL],MIC [7] [µg/mL],MIC [8] [µg/mL],MIC [9] [µg/mL],MIC (Peptococcus prevoti 1281) [µg/mL],MIC [10] [µg/mL],MIC [11] [µg/mL],MIC [13] [µg/mL],MIC [14] [µg/mL],MIC [15] [µg/mL],MIC [16] [µg/mL],MIC [17] [µg/mL],MIC [18] [µg/mL],MIC [19] [µg/mL],MIC [20] [µg/mL],also measured
"CCC[C@@H]1C[C@@H](C(=O)N[C@@H]([C@H]2O[C@H](SC)[C@H](O)[C@@H](O)[C@H]2O)[C@H](C)Cl)N(C)C1 [C, clindamycin, reference compound]",0.125,0.25,1,8,4,≤ 0.06,0.25,≤ 0.5,0.125,32,0.125,1,0.125,≤ 0.5,≤ 0.5,0.125,0.25,4,≤ 0.5,0.125,MIC [12]: ≤ 0.5 µg/mL
"CCOC(=O)C(=O)Nc1c(C#N)c(-c2ncc([N+](=O)[O-])n2C)nn1C [Example 1, N-[4-Cyano-1-methyl-3-(1-methyl-5-nitroimidazol-2-yl)pyrazol-5-yl]oxamic acid, ethyl ester]",0.125,0.25,0.125,0.5,0.25,,0.125,32,,≤ 0.25,0.25,,0.25,> 64,≤ 0.25,0.125,,0.5,≤ 0.25,0.25,Survival Ratio (Salmonella typhimurium): 4/5; 24 Hr. MIC [6]: 0.06 µg/mL; 24 Hr. MIC [9]: 0.125 µg/mL; 24 Hr. MIC [11]: 16 µg/mL; MIC [12]: ≤ 0.25 µg/mL; 24 Hr. MIC [17]: 0.25 µg/mL
"CCOC(=O)C(=O)Nc1c(C#N)c(-c2ncc([N+](=O)[O-])n2C)nn1C [Example 2, N-[4-Cyano-1-methyl-3-(1-methyl-5-nitroimidazol-2-yl)pyrazol-5-yl]oxamic acid, ethyl ester, sodium salt]",,,,,,,,,,,,,,,,,,,,,24 Hr. MIC ([1]; sodium salt): 0.25 µg/mL; Survival Ratio (Salmonella typhimurium; sodium salt): 2/5; 24 Hr. MIC ([3]; sodium salt): 0.25 µg/mL; 24 Hr. MIC ([4]; sodium salt): ≤ 0.25 µg/mL; 24 Hr. MIC ([5]; sodium salt): 0.25 µg/mL; 24 Hr. MIC ([6]; sodium salt): 0.25 µg/mL; 24 Hr. MIC ([7]; sodium salt): 0.25 µg/mL; 24 Hr. MIC ([8]; sodium salt): > 64 µg/mL; 24 Hr. MIC ([9]; sodium salt): 0.5 µg/mL; 24 Hr. MIC (Peptococcus prevoti 1281; sodium salt): 0.5 µg/mL; 24 Hr. MIC ([10]; sodium salt): 0.25 µg/mL; 24 Hr. MIC ([11]; sodium salt): > 64 µg/mL; 24 Hr. MIC ([12]; sodium salt): ≤ 0.25 µg/mL; 24 Hr. MIC ([13]; sodium salt): 0.25 µg/mL; 24 Hr. MIC ([15]; sodium salt): ≤ 0.25 µg/mL; 24 Hr. MIC ([16]; sodium salt): 0.25 µg/mL; 24 Hr. MIC ([17]; sodium salt): 0.125 µg/mL; 24 Hr. MIC ([18]; sodium salt): ≤ 0.25 µg/mL; 24 Hr. MIC ([19]; sodium salt): 0.5 µg/mL
"Cn1nc(-c2ncc([N+](=O)[O-])n2C)c(C#N)c1NC(=O)C(=O)NN [Example 6, 5-[4-Cyano-1-methyl-3-(1-methyl-5-nitroimidazol-2-yl)pyrazol5-yl]semioxamazide]",0.25,0.5,0.25,,0.25,0.25,0.5,32,0.125,,0.5,32,0.25,> 64,≤ 0.25,0.5,0.5,,≤ 0.25,0.25,Survival Ratio (Salmonella typhimurium): 5/5; 24 Hr. MIC [4]: 0.5 µg/mL; 24 Hr. MIC (Peptococcus prevoti 1281): 0.5 µg/mL; 24 Hr. MIC [12]: ≤ 0.25 µg/mL; 24 Hr. MIC [18]: 0.5 µg/mL
"Cn1nc(-c2ncc([N+](=O)[O-])n2C)c(C#N)c1NC(=O)C(=O)c1ccccc1 [Example 10, N-[4-cyano-1-methyl-3-(1-methyl-5-nitroimidazol-2-yl)pyrazol-5-yl]-2-phenylglyoxylamide]",≤ 0.03,≤ 0.03,≤ 0.03,,,≤ 0.03,≤ 0.03,64,,,≤ 0.03,64,,> 64,0.5,≤ 0.03,≤ 0.03,1,,≤ 0.03,24 Hr. MIC [4]: 2 µg/mL; 24 Hr. MIC [5]: ≤ 0.03 µg/mL; 24 Hr. MIC [9]: 0.06 µg/mL; 24 Hr. MIC (Peptococcus prevoti 1281): 16 µg/mL; 24 Hr. MIC [12]: 1.0 µg/mL; 24 Hr. MIC [13]: ≤ 0.03 µg/mL; 24 Hr. MIC [19]: 2 µg/mL
